Values joined by “and” are separate entries in the source; they are usually repeats but may differ in a detail not shown here. Identical values can stand only once. Like-named read-outs stand apart in the source and are kept apart here.
Legend:
[1] = test system: LXR-related markers (Abca1, Srebf1_1C, AQP1, ApoE1); assay: In vivo qPCR analysis of effect of inotodiol on LXR-related markers; parameters: species or system mice (BALB/cAnNTacSam)
Method: The effect of inotodiol on Abca1, Srebf1_1C, AQP1, and ApoE1, which are LXR-related markers, was analyzed.
First, an inotodiol emulsion for administration at a dose of 4 mg/kg was prepared. Specifically, an emulsion was prepared by mixing inotodiol with 10% of olive oil (Monini, Classico extra virgin olive oil), 0.5% of tween 80, and sterile water. Subsequently, each 0.15 mL of the prepared emulsion was administered to BALB/cAnNTacSam (Sam Taco Bio Korea Co., Ltd.) for 5 days. After 5 days of administration, mice were euthanized, and then spleen, lung, liver and peritoneal cell samples were isolated.
Next, to perform qPCR on the isolated samples, total RNA was extracted using a Bead™ Total RNA Prep Kit (BioFACT™) sample. Thereafter, primers for Abca1, Srebf1_1C, AQP1, and ApoE1 were used, the reaction reagent for qPCR was 2× Real-Time PCR Master Mix (BioFACT™), and the equipment used for qPCR was AriaMx Real-time PCR. The qPCR conditions were as follows: at 95° C. for 15 minutes, and 50 cycles at 95° C. for 20 seconds, 55° C. for 30 seconds, and 72° C. for 0.5-1 min/kb, and for the melting curve, 1 cycle was performed at 95° C. for 30 seconds, 65° C. for 30 seconds, and 95° C. for 30 seconds, and relative mRNA expression was measured.

[2] = Two-week mouse toxicity test: health signs and total fat content of liver; conditions: for changes in total fat content of the liver: male and female mice, 2 weeks
Method: If inotodiol is a LXR-α agonist, inotodiol overexpresses Srebf1 in the liver, thereby inducing fatty liver. Selectivity for LXRs and safety of inotodiol were evaluated through a two-week mouse toxicity test.
Specifically, the inotodiol emulsion was orally administered to male and female ICR mice in an amount of 0.0 mg/kg (group 1), 5.0 mg/kg (group 2), and 20 mg/kg (group 3) once a day for 2 weeks. […] As a control, 100% olive oil was administered.

[3] = Inotodiol concentrations in blood and brain tissue (LC/MS); type: in vivo, Balb/c mice; conditions: 4.5 mg/kg orally for 10 days, sampled day 11; for concentration at 11 day: 4.5 mg/kg
Method: When inotodiol was administered to mice, the concentrations of inotodiol detected in blood and brain tissue of the mice were analyzed.
Specifically, 7-week-old Balb/c mice were supplied and acclimatized for 1 week, and then 4 mice per group were assigned to conduct experiments. Mice were grouped into: four controls not administered with inotodiol; and four groups administered with inotodiol. In the groups administered with inotodiol, 4.5 mg/kg of inotodiol was orally administered for 10 days. On day 11, the controls and inotodiol-administered mice were sacrificed, and blood and brain tissue samples were prepared.
First, to analyze the concentration of inotodiol in blood, 20 μL of serum was transferred to a 1.5 mL Eppendorf tube, and then inotodiol was extracted twice in ethanol. In each extraction step, 200 μL of ethanol was mixed with serum and the mixture was sonicated for 10 minutes, followed by centrifugation at 14000×g for 15 minutes.
To analyze the concentration of inotodiol in brain tissue, the whole brain was weighed and mixed with 10-fold (v/w) 100% ethanol, and then the mixture was sonicated and centrifuged.
After centrifugation, each residue was reconstituted with 0.5 mL of 60% methanol for solid phase extraction by using a C18 cartridge (Sep-Pak C18 3 cc Vac Cartridge, 200 mg adsorbent, Waters). Samples were loaded into cartridges and activated using methanol (6 mL), followed by conditioning with 60% methanol (6 mL). The cartridges were then washed with 6 mL of 60% methanol. Then, inotodiol was collected by eluting the cartridges with 100% methanol (3 mL) in glass tubes. After evaporation of each sample, the residue was dissolved in methanol and subjected to LC/MS analysis.

ABCA1 = assay: Real-time PCR of ABCA1 gene expression in brain tissue; type: in vivo, Balb/c mice; conditions: Ino (10 mpk) vs control (Naïve); groups prepared as in Example 3; FIG. 6A
Method: (§1) When inotodiol was administered to mice, the expression of ABCA1 and APOE in brain tissue, which are genes related to neurodegenerative brain diseases, was analyzed.
(§2) Specifically, as in Example 3, controls and inotodiol-administered mouse groups were prepared, and then, to extract total RNA, first, 50 mg of brain tissue samples were quantified, and then cells were crushed using a mortar. 1 mL of Trizol was dispensed into each crushed sample and mixed by vortexing. Then, 0.2 mL of chloroform was dispensed and a reaction was allowed to occur therein at room temperature for 3 minutes. The reaction product was centrifuged at 12,000 rpm and 4° C. for 15 minutes, and then only the transparent supernatant was transferred to a new tube. Thereafter, 0.5 mL of isopropyl alcohol was dispensed, and then a reaction was allowed to occur therein at room temperature for 10 minutes. The resultant was centrifuged 12,000 rpm and 4° C. for 10 minutes, and then the supernatant was completely removed, and impurities were removed using 1 mL of 75% ethanol. […] Each sample was dissolved using DEPC water, and then total RNA was quantified to 1000 ng/μL using Nanodrop, and cDNA synthesis was performed using primeScript RT Master Mix (Takara Korea). […]

APOE = assay: Real-time PCR of APOE gene expression in brain tissue; type: in vivo, Balb/c mice; conditions: Ino (10 mpk) vs control (Naïve); groups prepared as in Example 3; FIG. 6B
Method: as §1, §2

rheumatoid arthritis = assay: Bovine type II collagen-induced arthritis, macroscopic arthritic score; type: in vivo, male DBA/1J mice; conditions: 4 mg/kg or 10 mg/kg orally once a day for 4 weeks; vs arthritic animals not administered; FIG. 7
TNF-α = TNF-α ELISA in arthritic animals; type: in vivo, mouse; conditions: arthritic animals administered with inotodiol; FIG. 8
Method: Next, the expression of TNF-α, which is a factor that activates inflammation, was confirmed. […] Then, the coating buffer was removed, followed by washing three times with 200 μL of washing buffer (0.05% Tween20/PBS). To prevent non-specific binding, a reaction with 200 μL of a blocking solution (1% BSA/PBS) was allowed to occur at room temperature for 1 hour. Washing was performed three times using a washing buffer. A standard material (Biolgend) and each sample were diluted using a blocking solution, and then 100 μL of each thereof was dispensed, and a reaction was allowed to occur therein at room temperature for 2-4 hours. Washing was performed three times using a washing buffer. A secondary antibody (biotin-labeled detection antibody, biolegend) was diluted to 0.25-2 μg/mL using a blocking solution, and then 100 μl thereof was dispensed and a reaction was allowed to occur therein at room temperature for 1 hour. Washing was performed three times using a washing buffer. Avidin-Horseradish peroxidase (Biolegend) was diluted 1/1000 times using a blocking solution, then 100 μL thereof was dispensed and a reaction was allowed to occur therein at room temperature for 30 minutes. Washing was performed 5 times using a washing buffer. […] An ELISA plate was examined at 450 nm using an EPOCH microplate reader (Biotek).

[4] = inotodiol emulsion 4 mg/kg for 5 days, various samples (FIGS. 1 to 5), vs untreated control
[5] = liver sample, 4 mg/kg for 5 days

CC(C)=CC[C@@H](O)[C@@H](C)[C@H]1CC[C@@]2(C)C3=C(CC[C@]12C)[C@@]1(C)CC[C@H](O)C(C)(C)[C@@H]1CC3 [inotodiol, (3S,5R,10S,13R,14R,17R)-17-[(2S,3R)-3-hydroxy-6-methylhept-5-en-2-yl]-4,4,10,13,14-pentamethyl-2,3,5,6,7,11,12,15,16,17-decahydro-1H-cyclopenta[a]phenanthren-3-ol]
expression of AQP1 (relative mRNA expression) [1, 4]: increases | expression of Abca1 (relative mRNA expression) [1, 4]: increases | expression of ApoE1 (relative mRNA expression) [1, 4]: increases | expression of Srebf1 (relative mRNA expression) [1, 4]: increases | expression of AQP1, regulated by LXR-β [1, 5]: significant increase | expression of Srebf1, specifically regulated by LXR-α [1, 5]: no significant increase | LXR-α / LXR-β selectivity inferred from marker expression ([1]; liver sample, inferred from Srebf1 and AQP1 expression): does not bind well to LXR-α and acts as an agonist by more specifically binding to LXR-β | Total fat (%) in mouse liver, Average ([2]; Female, Group 2 (5.0 mg/kg oral once a day for 2 weeks)): 3.24% | Total fat (%) in mouse liver, individual animal analyses ([2]; Female, Group 2 (5.0 mg/kg oral once a day for 2 weeks), 5 mg/kg): 2.96% and 3.08% and 2.80% and 2.72% and 3.45% and 3.57% and 3.03% and 3.10% and 4.42% and 3.82% and 2.85% and 3.09% | Total fat (%) in mouse liver, Average ([2]; Female, Group 3 (20 mg/kg oral once a day for 2 weeks)): 3.56% | Total fat (%) in mouse liver, individual animal analyses ([2]; Female, Group 3 (20 mg/kg oral once a day for 2 weeks), 20 mg/kg): 4.01% and 4.03% and 3.49% (2×) and 2.69% and 2.94% and 3.09% and 3.19% and 3.16% and 3.23% and 4.77% and 4.62% | Total fat (%) in mouse liver, Average ([2]; Male, Group 2 (5.0 mg/kg oral once a day for 2 weeks)): 3.23% | Total fat (%) in mouse liver, individual animal analyses ([2]; Male, Group 2 (5.0 mg/kg oral once a day for 2 weeks), 5 mg/kg): 3.39% and 3.25% and 3.48% and 3.47% and 2.83% and 2.72% and 2.86% and 3.78% and 3.19% and 3.17% and 3.18% and 3.43% | Total fat (%) in mouse liver, Average ([2]; Male, Group 3 (20 mg/kg oral once a day for 2 weeks)): 3.27% | Total fat (%) in mouse liver, individual animal analyses ([2]; Male, Group 3 (20 mg/kg oral once a day for 2 weeks), 20 mg/kg): 3.38% and 3.52% and 3.44% and 3.47% and 3.07% and 3.10% and 3.23% and 3.30% and 3.36% and 3.41% and 2.99% and 2.93% | changes in total fat content of the liver ([2]; dose of 5 mg/kg): no significant changes | changes in total fat content of the liver ([2]; dose of 20 mg/kg): no significant changes | signs of abnormal health ([2]; oral, 5.0 and 20 mg/kg once a day for 2 weeks, male and female ICR mice): No signs of abnormal health | Inotodiol concentration (ng/g) Brain, individual mice [3]: 177.1 ng/g and 133.3 ng/g and 135.0 ng/g | Inotodiol concentration (ng/g) Brain, Average ([3]; 4 mice): 151.7 ± 21.3 ng/g | Inotodiol concentration (ng/g) Blood, Average ([3]; 4 mice, serum): 12.1 ± 1.3 ng/g | Inotodiol concentration (ng/g) Blood, individual mice ([3]; serum): 10.5 ng/g and 14.2 ng/g and 11.8 ng/g | Kp at 11 day ([3]; Balb/c, mouse, brain / blood (serum), oral, read-out: inotodiol detected in the brain relative to blood): ~12 | concentration at 11 day ([3]; Balb/c, mouse, brain, oral, 4 mice, read-out: Inotodiol concentration (ng/g) Brain, Average): 152 ± 21.3 ng/g | concentration at 11 day ([3]; Balb/c, mouse, brain, oral, read-out: Inotodiol concentration (ng/g) Brain, individual mice): 161 ng/g | concentration at 11 day ([3]; Balb/c, mouse, serum, oral, 4 mice, serum, read-out: Inotodiol concentration (ng/g) Blood, Average): 12.1 ± 1.3 ng/g | concentration at 11 day ([3]; Balb/c, mouse, serum, oral, serum, read-out: Inotodiol concentration (ng/g) Blood, individual mice): 12.2 ng/g | ABCA1 gene expression in brain tissue (ABCA1): highly expressed | APOE gene expression in brain tissue (APOE): highly expressed | macroscopic arthritic score (maximum score=16) (rheumatoid arthritis): lower | TNF-α expression (ELISA) (TNF-α): lower level

Reference: patent US12685738B2, “Inotodiol as agonist of liver x receptors, and use thereof” (CARBOEXPERT INC., priority 2020, dated 2026)
